Results from article PMC4999309, “Structures of TorsinA and its disease-mutant complexed with an activator reveal the molecular basis for primary dystonia” (eLife, 2016).

Molecular target: T1, TorsinAEQ-LULL1 (TorsinA-ATP-LULL1) (Homo sapiens, UniProt O14656+Q8NFQ8, O14656:E171Q)
T1 construct: gene TOR1A; TorsinA 51-332 (E171Q ATP trap), N-terminal 10xHis-7xArg tag cut by 3C; untagged luminal domain LULL1 233-470; co-expressed in E. coli with alpaca nanobody VHH-BS2 (crystallisation chaperone); heterodimer plus nanobody
Experiment: X-ray crystal structure, […] Å
Format: binding
Details: 2 mM ATP, pH 6.5; crystallised with nanobody VHH-BS2; ATP in Walker A/B nucleotide site with LULL1 Arg449 finger

Nc1ncnc2c1ncn2[C@@H]1O[C@H](COP(=O)(O)OP(=O)(O)OP(=O)(O)O)[C@@H](O)[C@H]1O [ATP]
X-ray crystal structure, 1.40 Å: An ATP molecule is bound in the manner characteristic of P-loop NTPases
